# In patent US12115177B1, “Application of phenyl glucuronide in preparing drug for pre-warning of cancer via induced volatolomics” (Shanghai Jiao Tong University, priority 2023, dated 2024):
# How the values were obtained:
# [1] = Stability verification of phenyl-β-D-glucuronide PBS solution (UPLC-MS and PDA detector); type: physicochemical; conditions: for peak area of phenyl-β-D-glucuronide: 400 μg/mL in PBS, PDA detector at 280 nm
# Experimental: PBS is used as solvent to prepare a phenyl-β-D-glucuronide solution at a concentration of 400 micrograms per milliliter (μg/mL), 1 mL phenyl-β-D-glucuronide solution is added individually into 1.5-mL injection bottles and sealed. The four bottles of drug solutions are treated as follows: the bottle A is a ready-to-use drug immediately analyzed for composition using ultra performance liquid chromatography mass spectrometry (UPLC-MS); the bottle B is placed in a refrigerator at 4° C. for 2 weeks and then analyzed for composition using UPLC-MS; the bottle C is placed at room temperature (25° C.) for 1 week and then analyzed for composition using UPLC-MS; and the ready-to-use drug in bottle D is analyzed for composition using UPLC-MS and […] (PDA) detectors after heating for 7 hours at 38.5° C. in a water bath. In addition, a 20 parts per million (ppm) phenol standard solution is prepared for UPLC-MS and PDA analysis.
# The results are shown in FIGS. 1A-1D, FIGS. 2A-2D, and FIGS. 3A-3E.
# The main purpose of setting these three temperatures (i.e., room temperature, 4° C., and 38.5° C.) is to characterize that the drug can be stored in a 4° C. refrigerator or room temperature for a long time without decomposition or deterioration. From the peak area data, it can be seen that the drug can be stored in a 4° C. refrigerator for 2 weeks or at room temperature for 1 week, and the effective component of the drug, phenyl-β-D-glucuronide, is basically unchanged, so under the condition of qualified sealing conditions, the drug solution can be stored for a longer time, which has practical application potential.
# β-glucuronidase = biological target: T1, β-glucuronidase (Escherichia coli, UniProt P05804); test: In vitro enzymatic reaction with β-glucuronidase, headspace SPME GC-MS detection of phenol; type: biochemical; conditions: pH 6.8 buffer, 37° C., 1 hour
# T1 construct: purchased Sigma-Aldrich 8162
# Experimental: A buffer is prepared with sterile water, the main components of the buffer include 75 millimoles per liter (mM) potassium phosphate (KH2PO4) and 1% bovine serum albumin (BSA), and 1 mole per liter (M) potassium hydroxide (KOH) is used to adjust the pH to 6.8. A phenyl-β-D-glucuronide solution is prepared with deionized water at a concentration of 0.75 grams per liter (g/L). The experiment is divided into a reactive group (also referred to as experimental group) and a control group, and 2.6 mL of deionized water, 2 mL of buffer and 1 mL of phenyl-β-D-glucuronide solution are successively added into two 20 mL injection bottles. After shaking well, they are stabilized in a water bath at 37° C. for 10 minutes. 2 microliters (μL) of β-glucuronidase glycerol solution (enzyme content: 500 U) are added in the bottle of the reactive group, and 2 uL of glycerol is added in the bottle of the control group. The covers are quickly tightened for reacting in a water bath at 37° C. for 1 hour. After the reaction, the aged extraction core is used for headspace solid-phase microextraction (also referred to as solid phase microextraction) for 30 minutes.
# [2] = tested on: MGC-803 subcutaneous gastric cancer model
# Experimental: In the embodiment of the disclosure, the mice used are 6-week-old female BALB/c-nude mice, specific pathogen-free (SPF) grade, and the weight at purchase is 17±1.5 g. purchased from Shanghai Jessie Experimental Animal Co., Ltd. Mice are raised in cages in clean animal rooms. The cages are ventilated through a central control system. The indoor temperature is 25±2° C., and the feed and water are used after autoclaved.
# After one week of adaptive feeding of the nude mice, the body weight is 20±2 g. During the feeding period, the growth and mental state of the mice are observed every day. The mice are randomly divided into two groups, namely a cancer group and a healthy group. In the cancer group, MGC-803 cells are used to construct a subcutaneous gastric cancer model. […] After the cells are adhered to the wall and grown to full size, they are digested with pancreatic enzyme, centrifuged, washed twice with PBS to remove residual serum, resuspended with PBS at a cell density of approximately about 5*10^7 cells/mL, and a cell inoculation volume of each mouse is 100 μL. The cell suspension used for inoculation should be inoculated within half an hour. During this period, the cells are placed on ice to reduce the metabolic activity of the cells to maintain cell activity. The tumor is implanted in the area with abundant blood supply in the middle and rear of the armpit, and the size of the tumor is measured weekly after the tumor is formed. Generally, the induced volatolomics experiment can be started at the third week after the implantation of the cells.
# The exhaled breath extraction device enriches the volatile substances in the exhaled breath of mice to the extraction core of headspace solid-phase microextraction (SPME), which is used to analyze the composition and relative content of the exhaled breath of mice before and after drug administration. A large mouth glass container with a volume of about 400 mL is used, the bottle mouth is frosted, and the sealing gasket, silicone plug and fixing clip are used to ensure sealing. The device is cleaned and dried before use. The mice needed to extract exhaled breath components are put into the glass container. The whole device is placed in a constant temperature environment of 25° C., sealed for 1 hour, and supplemented with oxygen at an interval of 15 minutes by injecting 10 mL of pure oxygen (99.9%) through the silicone plug with a glass syringe. After sealing for 1 hour, a 75 μm Car/PDMS extraction core is inserted into the glass container through the silicone plug, and the black extraction core is extended for headspace solid-phase microextraction for 30 minutes. The extraction process is carried out at a constant temperature of 25° C., and the oxygen is supplemented regularly according to the above process.
# The above 10 healthy mice and 10 tumor bearing mice are taken and injected with MGC-803 cells subcutaneously as Day 0 in the experiment.
# [3] = tested on: gastric mucosal epithelial cells; conditions: 500 μg/mL, 40 hours incubation, CCK-8
# Experimental: There is culture medium without inoculation of the cells with 100 μL per well. After incubation for 40 hours, the culture medium is discarded, 100 μL DMEM medium containing 10% cell counting kit 8 (CCK-8) is added to each well, and then incubated in the incubator for 2 hours. The value of optical density (OD) at 450 nm is monitored with a microplate reader for each well, and the cell viability is calculated based on the value of optical density.
# T1 sequence (P05804 whole entry): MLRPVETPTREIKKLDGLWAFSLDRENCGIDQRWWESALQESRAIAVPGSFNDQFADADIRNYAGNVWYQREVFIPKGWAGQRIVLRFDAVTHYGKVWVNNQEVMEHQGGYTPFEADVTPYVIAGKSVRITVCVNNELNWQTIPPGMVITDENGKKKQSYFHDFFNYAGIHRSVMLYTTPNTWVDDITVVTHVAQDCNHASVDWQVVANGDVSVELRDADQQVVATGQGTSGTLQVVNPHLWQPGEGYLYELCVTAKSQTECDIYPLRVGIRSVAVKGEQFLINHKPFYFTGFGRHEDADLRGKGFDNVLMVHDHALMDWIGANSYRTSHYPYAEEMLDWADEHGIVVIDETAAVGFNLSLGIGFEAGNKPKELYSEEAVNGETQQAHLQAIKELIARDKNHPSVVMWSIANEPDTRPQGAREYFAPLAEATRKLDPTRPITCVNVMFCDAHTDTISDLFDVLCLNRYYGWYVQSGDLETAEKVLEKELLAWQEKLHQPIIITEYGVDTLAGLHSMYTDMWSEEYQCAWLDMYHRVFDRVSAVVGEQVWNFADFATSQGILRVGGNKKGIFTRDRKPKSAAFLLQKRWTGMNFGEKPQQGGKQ
smiles,measurement,setting,value
O=C(O)[C@H]1O[C@@H](Oc2ccccc2)[C@H](O)[C@@H](O)[C@@H]1O [phenyl-β-D-glucuronide],peak area of phenyl-β-D-glucuronide,"[1]; bottle A, newly prepared",2143
same,peak area of phenyl-β-D-glucuronide,"[1]; bottle B, refrigerator at 4° C. for 2 weeks",2142
same,peak area of phenyl-β-D-glucuronide,"[1]; bottle C, room temperature (25° C.) for 1 week",2144
same,peak area of phenyl-β-D-glucuronide,"[1]; bottle D, heated 7 hours at 38.5° C. in a water bath",2160
same,storage time of PBS solution,[1]; 4° C. refrigerator,at least 2 weeks
same,new substances produced (other peaks) in the four bottles of solutions,"[1]; all four storage conditions, UPLC-MS and PDA",no other peaks of the new substances produced
same,peak of phenol in the four bottles of solutions compared with phenol standard,"[1]; all four storage conditions, versus 20 ppm phenol standard",no peak of phenol
same,self-decomposition without the action of enzymes,[1]; normal body temperature range (generally less than 38.5° C.),will not decompose by itself
same,storage time of PBS solution,[1]; room temperature,at least 1 week
same,decomposition of substrate without β-glucuronidase,"β-glucuronidase; control group, glycerol instead of enzyme",not decomposed
same,phenol production under the action of β-glucuronidase,"β-glucuronidase; experimental group, 500 U enzyme",produces phenol
same,"phenol level in exhaled breath, tumor bearing mouse group versus healthy mouse group","[2]; Day 0 (no solid tumors), 200 μg/kg intravenously, Mann-Whitney U-test",consistent without significant difference
same,"phenol level in exhaled breath, tumor bearing mouse group versus healthy group","[2]; from the 10th day onwards (solid tumors about 100 mm^3), 200 μg/kg intravenously, p<0.01",significantly higher
same,toxic or side effect in animal experiment,"[2]; mouse, in vivo",no toxic or side effect
same,fitted curve parameter A (tumor volume=A+B*phenol level in exhaled breath),"[2]; tumor bearing mice, FIG. 6",2065116.64068±293370.09484
same,fitted curve parameter B (tumor volume=A+B*phenol level in exhaled breath),"[2]; tumor bearing mice, FIG. 6",26167.51388±981.4
same,cell viability,[3],greater than 90%
